{
  "source": "paper PMC11125331",
  "about": "“Pharmaceutical Compounding in Veterinary Medicine: Suspension of Itraconazole” (Pharmaceutics, 2024)",
  "origin": "cited, not measured here",
  "key": {"[1]": {"parameters": "method as in PMID 28627123"}, "dogs [2]": {"tested_on": "dogs", "parameters": "method as in earlier work"}, "dogs [3]": {"tested_on": "dogs", "parameters": "method as in PMID 35245984, PMID 34109637", "conditions": "orally at 10 mg/kg"}, "cats": {"tested_on": "cats", "parameters": "method as in PMID 35245984, PMID 34109637", "conditions": "punctual administrations"}},
  "note": "Read-outs that look alike come from different tables or passages of the source.",
  "data": [
    {"molecule": "CCC(C)n1ncn(-c2ccc(N3CCN(c4ccc(OCC5COC(Cn6cncn6)(c6ccc(Cl)cc6Cl)O5)cc4)CC3)cc2)c1=O", "note": "(centres unmarked) [Itraconazole]", "values": [
      {"measurement": "Biopharmaceutical Classification System class", "value": "class II"},
      {"measurement": "log P (n-octanol/water)", "setting": "at pH 8.1", "value": 5.66},
      {"measurement": "Solubility", "setting": "in 0.1 M chlorhydric acid (HCl)", "value": "4 to 6", "unit": "µg/mL"},
      {"measurement": "Solubility", "setting": "in water", "value": "0.001 to 0.004", "unit": "µg/mL"},
      {"measurement": "Concentration in skin and hair relative to plasma levels", "setting": "[1]", "value": "ten times higher than plasma levels"}
    ]},
    {"molecule": "OC[C@@H](O)[C@H](O)[C@@H](O)CO", "note": "[xylitol]", "values": [
      {"measurement": "Adverse effects", "setting": "dogs [2]", "value": "can cause severe hypoglycemia"}
    ]},
    {"molecule": "polysorbate 80", "values": [
      {"measurement": "Adverse effects", "setting": "dogs [3]", "value": "produces cardiovascular changes and hypersensitivity effects"},
      {"measurement": "Safety", "setting": "cats", "value": "safe"}
    ]}
  ]
}
